Experimental data as given in PubChem BioAssay (NCI).
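Assay format: 96-well plates, 48-hour exposure. GI50: concentration for 50% inhibition of growth. The concentration for full growth arrest is given as TGI.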

How the values were obtained:
Assay in all cases: inhibition of tumour cell growth, NCI panel, 48 h
DU-145 prostate = test system: DU-145 prostate
NCI-H23 lung = test system: NCI-H23 lung
OVCAR-4 ovarian = test system: OVCAR-4 ovarian
HT29 colon = test system: HT29 colon
SR leukemia = test system: SR leukemia
SNB-75 CNS = test system: SNB-75 CNS
UO-31 renal = test system: UO-31 renal
SW-620 colon = test system: SW-620 colon
COLO 205 colon = test system: COLO 205 colon
HS 578T breast = test system: HS 578T breast

SMILES	GI50 (DU-145 prostate) [µM]	TGI (DU-145 prostate) [µM]	GI50 (NCI-H23 lung) [µM]	TGI (NCI-H23 lung) [µM]	GI50 (OVCAR-4 ovarian) [µM]	TGI (OVCAR-4 ovarian) [µM]	GI50 (HT29 colon) [µM]	TGI (HT29 colon) [µM]	GI50 (SR leukemia) [µM]	TGI (SR leukemia) [µM]	GI50 (SNB-75 CNS) [µM]	TGI (SNB-75 CNS) [µM]	GI50 (UO-31 renal) [µM]	TGI (UO-31 renal) [µM]	GI50 (SW-620 colon) [µM]	TGI (SW-620 colon) [µM]	GI50 (COLO 205 colon) [µM]	TGI (COLO 205 colon) [µM]	GI50 (HS 578T breast) [µM]	TGI (HS 578T breast) [µM]
COc1ccc(NC(=O)c2sc3nc4c(cc3c2N)CCCC4)cc1	0.982	> 100	2.55	> 100	1.98	> 100	0.345	3.36	0.3	16.3	0.342	11.6	0.795	> 100	0.429	> 100	0.876	6.46	0.567	> 100
CC(C)(C)[Si](C)(C)OCC1OC(n2cnc3c(N)ncnc32)C(O)C1O (stereo not given)	–	> 100	–	> 100	–	> 100	–	> 100	–	> 100	–	> 100	–	> 100	–	> 100	–	> 100	–	> 100
